“Also recorded” adds a separate entry of the source.
Experiments:
[1] = tested on: HepG2 Cells; assay: Total 125I-LDL binding to HepG2 cells; format: cell-based, human; conditions: for I-LDL BINDING: HepG2, 10 ug/ml 125I-LDL, 4 h, 4° C., n = 3, untreated 36.0; for LDL-binding (in words): HepG2 / hepatic cells
Description: HepG2 cells were obtained from Dr. Barbara Knowles of the Wistar Institute, Pennsylvania. The HepG2 stock monolayers were maintained under the same conditions as the fibroblast monolayers, in a medium comprising MEM supplemented with 10% heat-inactivated FBS, and 1% (v/v) each of penicillin-streptomycin solution, non-essential and essential amino acids, and L-glutamine.
For experiments using HepG2 cells, confluent stock monolayers were washed once with Dulbecco's PBS, dissociated with 0.05-0.02% trypsin-EDTA followed by treatment with deoxyribonuclease I (0.1%), and were seeded (3.0×10^6) under identical conditions. The experimental MEM contained 25% (v/v) D2 O, 9% (v/v) delipidated FBS, and 1% (v/v) each of heat-inactivated FBS, penicillin-streptomycin, essential and non-essential amino acids, L-glutamine and 20 mM HEPES.
The fibroblast and hepatoblastoma cells were cultured in media containing 25% D2 O and 1% FBS in order to determine de novo cholesterol synthesis under conditions that permit receptor mediated cholesterol transport, according to the method of Easterman & Javitt et al., J. Lipid Res., 26: 950-954 (1985). Dish cultures of each cell type were prepared, and 26-aminocholesterol, dissolved in N,N-dimethylformamide (DMF, 9 ul per dish, 0.3% v/v) was added to each culture. The cells were then grown to confluence (96 hours, day 5). […] Duplicate or triplicate dishes containing 9 ul of DMF, but without 26-aminocholesterol, were used as controls.
LDL (d, 1.019-1.03) was isolated by sequential preparative ultracentrifugation of normal human plasma, using solid KBr for density adjustment, according to the methods of Havel et al., J. Clin. Invest., 34: 1345-1353 (1955) and Radding & Steinberg, J Clin. Invest., 39: 1560-1569 (1960). The isolated LDL was then iodinated with ^125 INa by the monochloride procedure of McFarlane, Nature, 102: 53 (1958), as modified for lipoproteins according to Bilheimer et al., Biochim. Biophys. Acta. 260: 212-221 (1972). To remove free iodine, the LDL preparation was subjected to column chromatography on a Sephadex G-25M disposable mini-column (Pharmacia PD-10) and was dialized against 0.15 M NaCl and […] EDTA, pH 7.4. The specific activity of all LDL preparations ranged between 160-300 cpm/mg of LDL proteins. ^125 I-LDL was stored at 4° C. and was sterilized by filtration through a 0.45 um membrane just prior to incubation with the treated fibroblast and hepatoblastoma cell cultures and control cultures.
For binding studies, a fixed concentration of 10 ug/ml of ^125 I-LDL was added directly to the monolayers of the confluent culture medium (at or near the 96th hour) and incubation was continued for a further 4 hours at 37° C. for fibroblasts and 4° C. for HepG2 cells. After this incubation, the culture dishes were placed on ice, the medium was removed, and the cell monolayers were washed as described in Goldstein & Brown, J. Biol. Chem., 249: 5153-5162 (1974). The monolayers were then scraped off the dishes with a teflon policeman and were solubilized with 1 ml of 0.1 N NaOH.
Cell-associated radioactivity was measured in a Packard auto gamma scintillation spectrometer Model 5160, and cell protein was measured by the method of Lowry et al., J. Biol. Chem., 193: 265-275 (1951), using bovine serum albumin as a standard. Total ^125 I-LDL binding was expressed as the mass of ^125 I-LDL (mg) per mg of cell protein. […]

[2] = tested on: fibroblast and hepatoblastoma cells; format: cell-based, human
Procedure: Lipid Res., 26: 950-954 (1985). Dish cultures of each cell type were prepared, and 26-aminocholesterol, dissolved in N,N-dimethylformamide (DMF, 9 ul per dish, 0.3% v/v) was added to each culture. The cells were then grown to confluence (96 hours, day 5). […] Duplicate or triplicate dishes containing 9 ul of DMF, but without 26-aminocholesterol, were used as controls.

[3] = tested on: HMG CoA reductase; assay: HMG CoA reductase activity in fibroblasts; format: cell-based
[4] = tested on: DNA synthesis and cell growth; conditions: mechanism appears independent of HMG CoA reductase activity; cited from earlier work

SMILES | I-LDL BINDING ([1]; 0.156 uM) | I-LDL BINDING ([1]; 0.312 uM) | I-LDL BINDING ([1]; 0.625 uM) | LDL-binding (in words) [1] | effect on cell growth [2] | HMG CoA reductase activity [3] | DNA synthesis and cell growth [4] | I-LDL BINDING ([1]; 5.0 uM) | I-LDL BINDING ([1]; 10.0 uM) | I-LDL BINDING ([1]; 20.0 uM)
C[C@@H](CN)CCC[C@@H](C)[C@H]1CC[C@H]2[C@@H]3CC=C4C[C@@H](O)CC[C@]4(C)[C@H]3CC[C@]12C [26-NH2, 26-aminocholesterol] | 40.9 +/- 3.1 ug LDL protein per mg cell pro | 43.9 +/- 4.0 ug LDL protein per mg cell pro | 52.4 +/- 8.8 ug LDL protein per mg cell pro | do not provide a similar reduction; also recorded: little or no effect; also recorded: no impact | No effect on cell growth was observed | inhibit HMG CoA reductase activity | downregulate DNA synthesis and cell growth |  |  | 
CC(CO)CCC[C@@H](C)[C@H]1CC[C@H]2[C@@H]3CC=C4C[C@@H](O)CC[C@]4(C)[C@H]3CC[C@]12C (stereo partly shown) [26-OH, 26-hydroxycholesterol] |  |  | 53.6 +/- 1.3 ug LDL protein per mg cell pro | do not provide a similar reduction |  |  |  |  |  | 
CC(CS)CCC[C@@H](C)[C@H]1CC[C@H]2[C@@H]3CC=C4C[C@@H](O)CC[C@]4(C)[C@H]3CC[C@]12C (stereo partly shown) [26-SH] |  |  |  | no impact |  |  |  | 37.8 +/- 3.4 ug LDL protein per mg cell pro | 45.8 +/- 3.9 ug LDL protein per mg cell pro | 35.7 +/- 4.8 ug LDL protein per mg cell pro
